Tests used:
mouse receptor Olfr169 = molecular target: T1, mouse receptor Olfr169 (Mus musculus, UniProt Q7TS53); assay: cell-based dose-response, cAMP increase by HTRF, HEK293T cells (endogenous RTP1 activated) co-transfected with human Golf, Lucy-FLAG-Rho tagged receptor
T1 construct: cAMP HTRF
T1 sequence (Q7TS53 1-313): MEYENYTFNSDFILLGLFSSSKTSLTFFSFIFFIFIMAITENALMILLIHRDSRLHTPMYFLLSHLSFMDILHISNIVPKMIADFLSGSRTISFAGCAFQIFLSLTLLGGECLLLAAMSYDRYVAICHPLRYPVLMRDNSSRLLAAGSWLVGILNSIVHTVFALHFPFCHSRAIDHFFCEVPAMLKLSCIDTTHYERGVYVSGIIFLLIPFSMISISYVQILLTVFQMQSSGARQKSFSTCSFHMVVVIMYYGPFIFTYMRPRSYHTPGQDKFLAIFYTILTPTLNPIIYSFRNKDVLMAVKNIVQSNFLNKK
Protocol: Functional dose-response experiments were performed to evaluate the level of DMTS activity of the modified cell line expressing individual putative DMTS receptors. Using a cell-based assay, mouse receptor Olfr1193, Olfr1093, Olfr1097, Olrf166, Olfr169, Olfr738 and Olfr742, and human receptor OR4S2 and OR52N5 were tested in an HEK293T cell line wherein the endogenous RTP1 gene has been activated and the odorant receptor chaperone protein was expressed (described in WO2016/201153). The mouse receptor genes were tagged with a Lucy-FLAG®-Rho tag combination and the human receptors were tagged with a Rho-FLAG® tag combination resulting in a tag:receptor fusion protein for the cell based assay. Receptor genes were co-transfected with the canonical olfactory human G-protein alpha subunit Golf gene and were exposed to increasing concentrations of the malodor odorant. Co-expression of the human Golf activates the Gs transduction pathway that leads to an internal cAMP increase upon binding to the appropriate ligand. Odorant-induced activity was detected by measuring the cAMP increase in the cytosol using an Homogeneous Time Resolved Fluorescence (HTRF) based kit (CisBio, cAMP dynamic 2 kit, cat. 62AM4PEJ). […] The activity levels are reported by the potency of the DMTS induced-response for each receptor as a measure of the EC50 value (the effective concentration at which the receptor responds at its half-maximal activation efficacy level for a given compound).
Functional dose-response experiments were performed to confirm the DMTS activity on the DMTS receptors identified in Example 2 and to further characterize their response to DMDS. Using the same cell-based assay described in Example 2, mouse receptors Olfr1193, Olfr1093, Olfr1097, Olfr166, Olfr169, Olfr738, Olfr742 and of human odorant receptor OR4S2 were tested with increasing concentration of DMTS, DMDS or butyric acid (control). […] A weak response for OR4S2 and Olfr169 to butyric acid was visible but was too weak to consider butyric acid as a representative ligand for these receptors. The activity levels are reported by the potency of DMTS or DMDS induced-response for each receptor as a measure of the EC50 value, EC50DMTS and EC50DMDS respectively. […] Competitive antagonists at the malodor binding site of these receptors have the potential to reduce the unpleasant perception of both DMTS and DMDS.

human receptor OR11G2 = molecular target: T2, human receptor OR11G2 (Homo sapiens, UniProt Q8NGC1); assay: cell-based dose-response, Ca2+ increase (Calcium 5 dye, FLIPR), HEK293T line stably expressing FLAG-Rho tagged receptor with human Gα15; details: FIG. 3, Example 3, SEQ ID NO: 36, stable HEK293T
T2 construct: The receptors were tagged with a FLAG®-Rho tag combination; expressed in transfected cells
T2 sequence (Q8NGC1 35-345 limits assumed): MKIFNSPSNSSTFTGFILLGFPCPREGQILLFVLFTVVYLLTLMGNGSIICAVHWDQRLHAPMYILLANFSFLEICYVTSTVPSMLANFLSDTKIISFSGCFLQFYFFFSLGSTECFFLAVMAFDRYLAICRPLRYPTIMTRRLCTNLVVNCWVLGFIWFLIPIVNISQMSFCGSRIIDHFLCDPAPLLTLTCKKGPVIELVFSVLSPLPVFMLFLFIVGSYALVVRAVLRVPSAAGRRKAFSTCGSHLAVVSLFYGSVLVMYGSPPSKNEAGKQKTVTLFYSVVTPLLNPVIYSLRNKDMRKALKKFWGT
Protocol: (§1) Functional dose-response experiments were performed to evaluate the level of DMTS activity of the modified cell lines expressing individual putative DMTS receptors. A cell line stably expressing a human receptor was generated in a HEK293T cell line for each of the following human receptors: OR2L13, OR4C15, OR5AC2, OR8H3, OR11G2 or OR52N2. The receptors were tagged with a FLAG®-Rho tag combination and stably co-expressed with the human G-protein alpha subunit Gals for the cell based assay. Co-expression of the human Gals activates the Gq transduction pathway that leads to an internal Ca^2+ increase upon binding to the appropriate ligand. Receptors were exposed to increasing concentrations of DMTS. Odorant-induced activity was detected by measuring the Ca^2+ increase in the cytosol using a calcium sensitive fluorescent dye (Molecular Devices, Calcium 5 dye, cat. R8186) and measuring the change in Relative Fluorescence Ratio (RFU) using a fluorometric imaging plate reader (Molecular Devices, FLIPR) following odorant exposure. […] A cell line lacking a receptor was used as a control for non-specific activity at high compound concentrations (‘No receptor’). The activity levels are reported by the potency of the DMTS induced-response for each receptor as a measure of the EC50 value.

human receptor OR2L13 = molecular target: T3, human receptor OR2L13 (Homo sapiens, UniProt Q8N349); assay: as above; details: FIG. 3, Example 3, SEQ ID NO: 26, stable HEK293T
T3 construct: The receptors were tagged with a FLAG®-Rho tag combination; expressed in transfected cells
T3 sequence (Q8N349 1-312): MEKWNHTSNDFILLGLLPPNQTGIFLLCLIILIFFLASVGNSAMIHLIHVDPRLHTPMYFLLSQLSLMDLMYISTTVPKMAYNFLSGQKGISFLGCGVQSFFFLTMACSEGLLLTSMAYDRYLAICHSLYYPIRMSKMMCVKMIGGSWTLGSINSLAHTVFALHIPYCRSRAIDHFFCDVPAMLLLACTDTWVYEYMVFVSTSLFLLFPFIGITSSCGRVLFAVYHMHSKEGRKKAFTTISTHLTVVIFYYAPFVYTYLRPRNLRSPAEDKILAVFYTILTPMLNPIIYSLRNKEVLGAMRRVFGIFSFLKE
Protocol: as §1

human receptor OR8H3 = molecular target: T4, human receptor OR8H3 (Homo sapiens, UniProt Q8N146); assay: as above; details: FIG. 3, Example 3, SEQ ID NO: 34, stable HEK293T
T4 construct: The receptors were tagged with a FLAG®-Rho tag combination; expressed in transfected cells
T4 sequence (Q8N146 1-312): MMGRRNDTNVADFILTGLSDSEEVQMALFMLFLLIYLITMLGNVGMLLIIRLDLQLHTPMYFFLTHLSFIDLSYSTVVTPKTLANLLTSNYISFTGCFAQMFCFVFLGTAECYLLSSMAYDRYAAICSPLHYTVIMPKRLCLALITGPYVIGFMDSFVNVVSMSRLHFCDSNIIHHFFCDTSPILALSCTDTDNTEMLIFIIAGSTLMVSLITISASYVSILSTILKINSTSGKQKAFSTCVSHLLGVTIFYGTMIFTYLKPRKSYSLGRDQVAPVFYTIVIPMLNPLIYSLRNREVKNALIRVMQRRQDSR
Protocol: as §1

CSSSC [DMTS, dimethyl trisulfide]
EC50 (mouse receptor Olfr169; FIG. 2, Example 2, SEQ ID NO: 10): 32 µM | EC50 (mouse receptor Olfr169; FIG. 5, Example 5, SEQ ID NO: 10): 23 µM | EC50 (human receptor OR11G2): 12 µM | EC50 (human receptor OR2L13): 59 µM | EC50 (human receptor OR8H3): 62 µM

Reference: patent US11787847B2, “Method of identifying malodor modulating compounds” (FIRMENICH SA, priority 2017, dated 2023)
